Two compounds from publication PMC9094411 (2022) can be followed below.

The test deals with E. coli SugE guanidine-II riboswitch aptamer, 47mer FRET construct (C1G) (RNA, riboswitch, 5-aminoallyl-uridine at 3 (dye conjugated)) GUUUGCAGGACGACCUGCAAACGCCUCUUUUCACCGGGGACGGCCCC
Briefly: smFRET histograms, immobilised RNA (kissing-loop state population). The note with it: Mg2+ 1 mM, 50 mM Tris/Cl pH 7.4, 22 °C, imaging buffer, 30 nM-30 mM ligand.

In the case of `N=C(N)N`, the binding entry (K-state 66% at 30 mM) was “yes”. Take `NC(N)=O`: the binding entry (K-state 66% at 30 mM buffer, highest tested 30 mM, no K-state shift, RNA destabilised (U-state 35%)) is reported as “no”.
